Laboratory results reported in BindingDB's records for doi:10.1016/j.bioorg.2017.01.017 (University of The Punjab, 2017).

Biological target: Alpha-glucosidase MAL12 (Saccharomyces cerevisiae (strain ATCC 204508 / S288c), UniProt P53341)
Assay: α-Glucosidase Inhibition Assay
Procedure: Afterwards, 10 μL of 0.5 mM p-nitrophenyl-a-d-glucopyranoside (code No. N1377 fromSigma Inc) was added to instigate the reaction. Later 30 min incubation at 37 °C, yellow coloured p-nitrophenol was formed and the absorbance was again recorded at 400 nm to see the difference. These tests were performed in triplicates and suitable dilutions of samples were made for screening.

Sequence of Alpha-glucosidase MAL12 (P53341 whole entry): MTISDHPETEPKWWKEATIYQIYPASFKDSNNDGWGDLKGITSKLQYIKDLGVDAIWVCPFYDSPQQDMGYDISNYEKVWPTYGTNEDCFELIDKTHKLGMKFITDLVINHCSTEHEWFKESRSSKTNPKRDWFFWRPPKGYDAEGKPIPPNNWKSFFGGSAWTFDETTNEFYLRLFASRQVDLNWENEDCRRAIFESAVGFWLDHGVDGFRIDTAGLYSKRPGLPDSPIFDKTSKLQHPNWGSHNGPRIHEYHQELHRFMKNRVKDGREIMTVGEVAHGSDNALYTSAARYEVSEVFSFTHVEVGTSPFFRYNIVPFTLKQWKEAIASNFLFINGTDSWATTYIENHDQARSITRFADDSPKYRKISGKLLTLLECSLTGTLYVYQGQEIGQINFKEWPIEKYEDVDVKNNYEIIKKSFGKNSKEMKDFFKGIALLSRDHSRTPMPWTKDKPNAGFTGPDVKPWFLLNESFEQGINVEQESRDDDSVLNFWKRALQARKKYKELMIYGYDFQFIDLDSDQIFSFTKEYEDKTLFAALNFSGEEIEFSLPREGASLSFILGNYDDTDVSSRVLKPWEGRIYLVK

Compound | IC50
O=c1oc2ccccc2cc1-c1nn(-c2ccccc2)cc1-c1nc(-c2ccccc2)c(-c2ccccc2)[nH]1 [3-(4-(4,5-diphenyl-1H-imidazol-2-yl)-1-phenyl-1H-pyrazol-3-yl)-2H-chromen-2-one (2j)] | 2.78 µM
Brc1ccc(-c2nn(-c3ccccc3)cc2-c2nc(-c3ccccc3)c(-c3ccccc3)[nH]2)cc1 [3-(4-Bromophenyl)-4-(4,5-diphenyl-1H-imidazol-2-yl)-1-phenyl-1H-pyrazole (2c)] | 12 µM
Clc1ccc(-c2nn(-c3ccccc3)cc2-c2nc(-c3ccccc3)c(-c3ccccc3)[nH]2)cc1 [3-(4-Chlorophenyl)-4-(4,5-diphenyl-1H-imidazol-2-yl)-1-phenyl-1H-pyrazole (2b)] | 13.2 µM
c1ccc(-c2ccc(-c3nn(-c4ccccc4)cc3-c3nc(-c4ccccc4)c(-c4ccccc4)[nH]3)cc2)cc1 [3-([1,1'-Biphenyl]-4-yl)-4-(4,5-diphenyl-1H-imidazol-2-yl)-1-phenyl-1H-pyrazole (2g)] | 17.5 µM
c1ccc(-c2nn(-c3ccccc3)cc2-c2nc(-c3ccccc3)c(-c3ccccc3)[nH]2)cc1 [4-(4,5-Diphenyl-1H-imidazol-2-yl)-1,3-diphenyl-1H-pyrazole (2a)] | 22.2 µM
O=[N+]([O-])c1ccc(-n2cc(-c3nc(-c4ccccc4)c(-c4ccccc4)[nH]3)c(-c3ccccc3)n2)cc1 [4-(4,5-Diphenyl-1H-imidazol-2-yl)-1-(4-nitrophenyl)-3-phenyl-1H-pyrazole (2h)] | 7.81 µM
Cc1nn(-c2ccc([N+](=O)[O-])cc2)c(C)c1-c1nc(-c2ccccc2)c(-c2ccccc2)[nH]1 [4-(4,5-Diphenyl-1H-imidazol-2-yl)-3,5-dimethyl-1-(4-nitrophenyl)-1H-pyrazole (2i)] | 22 µM
O=[N+]([O-])c1cccc(-c2nn(-c3ccccc3)cc2-c2nc(-c3ccccc3)c(-c3ccccc3)[nH]2)c1 [4-(4,5-Diphenyl-1H-imidazol-2-yl)-3-(3-nitrophenyl)-1-phenyl-1H-pyrazole (2f)] | 12.8 µM
COc1ccc(-c2nn(-c3ccccc3)cc2-c2nc(-c3ccccc3)c(-c3ccccc3)[nH]2)cc1 [4-(4,5-Diphenyl-1H-imidazol-2-yl)-3-(4-methoxyphenyl)-1-phenyl-1H-pyrazole (2e)] | 24 µM
O=[N+]([O-])c1ccc(-c2nn(-c3ccccc3)cc2-c2nc(-c3ccccc3)c(-c3ccccc3)[nH]2)cc1 [4-(4,5-Diphenyl-1H-imidazol-2-yl)-3-(4-nitrophenyl)-1-phenyl-1H-pyrazole (2d)] | 20.7 µM
O=c1oc2ccc(Br)cc2cc1-c1nn(-c2ccccc2)cc1-c1nc(-c2ccccc2)c(-c2ccccc2)[nH]1 [6-Bromo-3-(4-(4,5-diphenyl-1H-imidazol-2-yl)-1-phenyl-1Hpyrazol-3-yl)-2H-chromen 2-one (2k)] | 2.95 µM
